# Results: patent US10011814B2, “Salt formulations for the fermentation of marine microorganisms” (Triphase Research and Development I Corp., priority 2006, dated 2018)
# How the values were obtained:
# [1] = test system: Salinispora tropica NPS021184; test: Production of Salinosporamide A and analogs in 42 L fermentor culture; titers by HPLC; conditions: for decrease of production: Ex.3, chemically defined salt formulation replacing INSTANT OCEAN, with cobalt
# Method: Seed cultures were prepared by inoculating frozen stock of Salinispora tropica NPS021184 into seed medium. For 10 mL seed medium in a 50-mL culture tube, one frozen stock (˜1.5 mL) was used for inoculation. For 100 mL seed medium in a 500-mL Erlenmeyer flask, two frozen stocks (˜3 mL total) were used for inoculation.
# The first seed cultures (either 10 mL medium in a 50-mL tube or 100 mL medium in a 500-mL Erlenmeyer flask) were incubated at 250 rpm and 28° C. for 3 to 4 days before inoculating (5% inoculum) into second seed medium with the same salt composition as used for the first seed cultures. After incubating at 250 rpm and 28° C. for 2 days, the second seed cultures (5% inoculum) were inoculated into an additional third seed culture (400 mL medium in 2.8 L Fembach flask) with the same medium, salt composition and incubation time as the second seed cultures, before inoculating into production media in the fermentor (26 L medium in a 42 L B. Braun Biostat-C fermentor).
# The production medium was then supplemented with either INSTANT OCEAN® commercial salt formulation or a chemically defined salt formulation based on the salt supplement used in the seed stages. The chemically defined salt formulation consisted of: […]
# The production medium for fermentation was also supplemented with CoCl2.6H2O at a concentration of 52 μg/L. No CoCl2.6H2O was added to the production medium in control samples.
# 3.5 mL of the fermentation culture was mixed with equal volume of EtOAc in an extraction tube to extract the various metabolites from the production culture.
# (§1) The mixture was shaken for 1 hr. An aliquot of the extract (1 mL) was removed and dried under a stream of nitrogen. The dried extract was stored at −20° C. freezer before HPLC analysis. The dried extract was resuspended in 320 μL DMSO and injected into HPLC using the 00TF14 method for analysis.
# (§2) The production of Salinosporamide A, NPI-0047 and NPI-2065 was monitored by Agilent HP1100 HPLC using an ACE C-18 reversed-phase column (4.6×150 mm), and solvent system consisting of water (0.01% TFA) as solvent A and acetonitrile (0.01% TFA) as solvent B. The elution was started at 100% solvent A for 1 min, 100% solvent A to 35% solvent A gradient in 7 min, held at 35% solvent A for 11 min, 35% solvent A to 100% solvent B in 8 min and held at 100% solvent B for 9 min at a flow rate of 1.5 mL/min with the detector wavelength set at 210 nm and column temperature 35° C.
# The first seed culture (100 mL medium) in a 500-mL Erlenmeyer flask was incubated at 250 rpm and 28° C. for 72 hours. 20 mL of the first seed culture was inoculated into second seed culture (400 ml medium) in a 2.8 L Fernbach flask with the same medium as the first seed culture. The second seed culture was incubated at 250 rpm and 28° C. for 48 hours. 200 mL of the […] was inoculated into a B. Braun B-Plus 5 L fermentor containing 4 L third seed medium with the same composition as the first and second seed medium. The thirds seed fermentor culture was incubated at 300 rpm and 28° C. with the airflow rate of 2 L/min for 36 hours. 1.5 L of the third seed culture was inoculated into 26 L production medium in a 42 L B. Braun Biostat-C fermentor.
# The production fermentor culture was operated at 200 rpm and 28° C. with the airflow rate of 13 L/min.
# as §1, with “3.5 mL of the fermentation culture was mixed with equal volume of EtOAc in an extraction tube to extract the various metabolites from the production culture. The mixture” for “The mixture”, “was shaken on the shaker for 1” for “was shaken for 1”
# Alternatively, the production of the compounds can be achieved in a 42 L fermentor system using strain NPS21184. […]
# [2] = test system: Salinispora tropica CNB440; test: Production of Salinosporamide A and analogs in shake flask culture; titers by HPLC; conditions: Ex.21, CoCl2·6H2O 208 μg/L seed, 52 μg/L production vs no cobalt
# Method: (§3) To determine the production profile of Low Sodium Frozen Stocks cultures of CNB440, CNB476 and NPS21184 grown up in low sodium production medium, 5 mL each of the 48-hour second seed culture samples of CNB476 and NPS21184 was used to inoculate 100 mL of production medium having the same composition as the seed medium in a 500-mL Erlenmeyer flasks. For CNB440, 5 mL of the 72 hour second seed culture sample was used to inoculate 100 mL of production medium having the same composition as the seed medium in a 500-mL Erlenmeyer flasks. The production cultures were incubated at 250 rpm and 28° C.
# (§4) 3.5 mL of the fermentation culture was mixed with equal volume of EtOAc in an extraction tube to extract the various metabolites from the production culture. The mixture was shaken on the shaker for 1 hr. […]
# as §2, with “C. […]” for “C.”
# [3] = test system: Salinispora tropica CNB476; test: as above; conditions: Ex.21, CoCl2·6H2O 208 μg/L seed, 52 μg/L production vs no cobalt
# Method: as §3, §4
# as §2, with “C. […]” for “C.”
# [4] = Ex.3, cobalt in seed and production media with INSTANT OCEAN vs no cobalt
Structure (SMILES),decrease of production [1],"decrease of production, on average [1, 4]",reduction of production by cobalt [2],reduction of production by cobalt [3],"increase of production, on average [1, 4]"
"CC[C@H]1C(=O)N[C@@]2([C@@H](O)[C@@H]3C=CCCC3)C(=O)O[C@@]12C [NPI-0047, Salinosporamide B]",47.3%,48.1%,48%,52%,
C[C@@]12OC(=O)[C@]1([C@@H](O)[C@@H]1C=CCCC1)NC(=O)[C@H]2CCCl [NPI-2065],7.9%,23.2%,,,
C[C@@]12OC(=O)[C@]1([C@@H](O)[C@@H]1C=CCCC1)NC(=O)[C@@H]2CCCl [Salinosporamide A],8.7%,,,,14.3%
